Laboratory results reported in patent US20080103127A1, “METHODS FOR TREATING DISRUPTIVE BEHAVIOR DISORDERS” (priority 2006, published 2008).

System: general behavior of male mice
Test: General behavior of male mice by visual observation using a checklist of behaviors
Format: in vivo
Details: for Number of Mice Affected: Decreased Open Field Activity / Number of Mice Affected: Decreased Startle Reflex / Number of Mice Affected: Extensor Limb Tone (hind limb) / Number of Mice Affected: Impaired Horizontal Screen Performance / Number of Mice Affected: Impaired Visual Placing Reflex / Number of Mice Affected: Locomotor Ataxia / Number of Mice Affected: Loss of Corneal Reflex / Number of Mice Affected: Loss of Pinnal Reflex / Number of Mice Affected: Loss of Righting Reflex / Number of Mice Affected: Passive Response to Handling / Number of Mice Affected: Reduced Skin Plasticity / Number of Mice Affected: Soft Body Tone / Number of Mice Affected: Tail Pinch Response, Absent: N = 3/group
Protocol: The effects of test compound on general behavior were evaluated by visual observation using a checklist of behaviors.

## NC(=O)OC[C@@H](O)c1ccccc1Cl [COMPOUND #7, carisbamate]
40 mg/kg p.o., 1 h
  Number of Mice Affected: Decreased Open Field Activity: 0
  Number of Mice Affected: Decreased Startle Reflex: 0
  Number of Mice Affected: Extensor Limb Tone (hind limb): 0
  Number of Mice Affected: Impaired Horizontal Screen Performance: 0
  Number of Mice Affected: Impaired Visual Placing Reflex: 0
  Number of Mice Affected: Locomotor Ataxia: 0
  Number of Mice Affected: Loss of Corneal Reflex: 0
  Number of Mice Affected: Loss of Pinnal Reflex: 0
  Number of Mice Affected: Loss of Righting Reflex: 0
  Number of Mice Affected: Passive Response to Handling: 0
  Number of Mice Affected: Reduced Skin Plasticity: 0
  Number of Mice Affected: Soft Body Tone: 0
  Number of Mice Affected: Tail Pinch Response, Absent: 0
40 mg/kg p.o., 4 h
  Number of Mice Affected: Decreased Open Field Activity: 0
  Number of Mice Affected: Decreased Startle Reflex: 0
  Number of Mice Affected: Extensor Limb Tone (hind limb): 0
  Number of Mice Affected: Impaired Horizontal Screen Performance: 0
  Number of Mice Affected: Impaired Visual Placing Reflex: 0
  Number of Mice Affected: Locomotor Ataxia: 0
  Number of Mice Affected: Loss of Corneal Reflex: 0
  Number of Mice Affected: Loss of Pinnal Reflex: 0
  Number of Mice Affected: Loss of Righting Reflex: 0
  Number of Mice Affected: Passive Response to Handling: 0
  Number of Mice Affected: Reduced Skin Plasticity: 0
  Number of Mice Affected: Soft Body Tone: 0
  Number of Mice Affected: Tail Pinch Response, Absent: 0
100 mg/kg p.o., 1 h
  Number of Mice Affected: Decreased Open Field Activity: 0
  Number of Mice Affected: Decreased Startle Reflex: 0
  Number of Mice Affected: Extensor Limb Tone (hind limb): 0
  Number of Mice Affected: Impaired Horizontal Screen Performance: 0
  Number of Mice Affected: Impaired Visual Placing Reflex: 0
  Number of Mice Affected: Locomotor Ataxia: 0
  Number of Mice Affected: Loss of Corneal Reflex: 0
  Number of Mice Affected: Loss of Pinnal Reflex: 0
  Number of Mice Affected: Loss of Righting Reflex: 0
  Number of Mice Affected: Passive Response to Handling: 0
  Number of Mice Affected: Reduced Skin Plasticity: 0
  Number of Mice Affected: Soft Body Tone: 0
  Number of Mice Affected: Tail Pinch Response, Absent: 0
100 mg/kg p.o., 4 h
  Number of Mice Affected: Decreased Open Field Activity: 0
  Number of Mice Affected: Decreased Startle Reflex: 0
  Number of Mice Affected: Extensor Limb Tone (hind limb): 0
  Number of Mice Affected: Impaired Horizontal Screen Performance: 0
  Number of Mice Affected: Impaired Visual Placing Reflex: 0
  Number of Mice Affected: Locomotor Ataxia: 0
  Number of Mice Affected: Loss of Corneal Reflex: 0
  Number of Mice Affected: Loss of Pinnal Reflex: 0
  Number of Mice Affected: Loss of Righting Reflex: 0
  Number of Mice Affected: Passive Response to Handling: 0
  Number of Mice Affected: Reduced Skin Plasticity: 0
  Number of Mice Affected: Soft Body Tone: 0
  Number of Mice Affected: Tail Pinch Response, Absent: 0
300 mg/kg p.o.
  effect on general behavior in mice: produced sedation
300 mg/kg p.o., 1 h
  Number of Mice Affected: Decreased Open Field Activity: 3
  Number of Mice Affected: Decreased Startle Reflex: 3
  Number of Mice Affected: Extensor Limb Tone (hind limb): 3
  Number of Mice Affected: Impaired Horizontal Screen Performance: 3
  Number of Mice Affected: Impaired Visual Placing Reflex: 3
  Number of Mice Affected: Locomotor Ataxia: 0
  Number of Mice Affected: Loss of Corneal Reflex: 3
  Number of Mice Affected: Loss of Pinnal Reflex: 3
  Number of Mice Affected: Loss of Righting Reflex: 3
  Number of Mice Affected: Passive Response to Handling: 3
  Number of Mice Affected: Reduced Skin Plasticity: 3
  Number of Mice Affected: Soft Body Tone: 3
  Number of Mice Affected: Tail Pinch Response, Absent: 3
300 mg/kg p.o., 4 h
  Number of Mice Affected: Decreased Open Field Activity: 2
  Number of Mice Affected: Decreased Startle Reflex: 0
  Number of Mice Affected: Extensor Limb Tone (hind limb): 2
  Number of Mice Affected: Impaired Horizontal Screen Performance: 2
  Number of Mice Affected: Impaired Visual Placing Reflex: 0
  Number of Mice Affected: Locomotor Ataxia: 2
  Number of Mice Affected: Loss of Corneal Reflex: 0
  Number of Mice Affected: Loss of Pinnal Reflex: 0
  Number of Mice Affected: Loss of Righting Reflex: 0
  Number of Mice Affected: Passive Response to Handling: 0
  Number of Mice Affected: Reduced Skin Plasticity: 0
  Number of Mice Affected: Soft Body Tone: 2
  Number of Mice Affected: Tail Pinch Response, Absent: 0
Doses up to 100 mg/kg p.o.
  behavioral or physical signs in mice: No behavioral or physical signs were observed
